Experimental data: DBAASP
In brackets after ≈: the same amount, converted by molar mass. Blank lines part the entries; values can stand above or below the molecule they belong to.

Columns and labels:
Test in all cases: ≥ marks a high value that may be exact or a test limit, other limits are often not marked, values filed in µg/mL are converted to µM
[1] = tested on: Pseudomonas aeruginosa PAO1
[2] = tested on: Staphylococcus aureus USA 300
[3] = tested on: Escherichia coli ATCC 25922
[4] = tested on: Klebsiella pneumoniae
[5] = tested on: Staphylococcus aureus ATCC 25923
[6] = tested on: Pseudomonas aeruginosa ATCC 27853
[7] = tested on: Salmonella enterica subsp. enterica serovar Typhimurium ATCC 14028
[8] = tested on: Candida albicans ATCC 90028
[9] = tested on: Staphylococcus aureus ATCC 29213
[10] = tested on: Staphylococcus aureus ATCC 2592
[11] = tested on: Bacillus subtilis ATCC 6633
[12] = tested on: Staphylococcus aureus ATCC 6538
[13] = tested on: Pseudomonas aeruginosa ATCC 9027
[14] = tested on: Bacillus subtilis
[15] = tested on: Candida albicans ATCC 2002

MIC [1]: > 25 µM | MIC [2]: 25 µM (≈ 30.3 µg/mL) | MIC [3]: > 25 µM
SMILES: CC(C)C[C@H](NC(=O)[C@H](CC(C)C)NC(=O)[C@H](CCCCN)NC(=O)CNC(=O)[C@H](C)NC(=O)[C@H](C)NC(=O)[C@H](CCCCN)NC(=O)[C@H](C)NC(=O)[C@H](C)NC(=O)[C@H](CO)NC(=O)[C@H](CC(C)C)NC(=O)[C@H](CC(C)C)NC(=O)CN)C(N)=O [GLLSAAKAAGKLL]

MIC [1]: > 25 µM | MIC [2]: 12.5 µM (≈ 15.3 µg/mL) | MIC [3]: 25 µM (≈ 30.6 µg/mL)
SMILES: CC(C)C[C@H](NC(=O)[C@H](CC(C)C)NC(=O)[C@H](CCCCN)NC(=O)CNC(=O)[C@H](CC(C)C)NC(=O)[C@H](CC(C)C)NC(=O)[C@H](CO)NC(=O)[C@H](CC(C)C)NC(=O)[C@H](CO)NC(=O)[C@H](CC(C)C)NC(=O)[C@H](CC(C)C)NC(=O)CN)C(N)=O [GLLSLSLLGKLL]

MIC [4]: 1 µM (≈ 2.28 µg/mL) | MIC [5]: ≥ 128 µM | MIC [3]: 0.707 µM (≈ 1.61 µg/mL) | MIC [6]: 2 µM (≈ 4.55 µg/mL) | MIC [7]: 1 µM (≈ 2.28 µg/mL)
SMILES: CC[C@H](C)[C@H](NC(=O)CN)C(=O)NCC(=O)N[C@@H](CCCCN)C(=O)N[C@@H](Cc1cnc[nH]1)C(=O)N[C@H](C(=O)NCC(=O)N[C@@H](CCCCN)C(=O)N[C@@H](C)C(=O)N[C@@H](CC(C)C)C(=O)N[C@@H](CCCCN)C(=O)NCC(=O)N[C@@H](CC(C)C)C(=O)N[C@@H](CCCCN)C(=O)NCC(=O)N[C@@H](CC(C)C)C(=O)N[C@@H](CC(C)C)C(=O)N[C@@H](CCCCN)C(=O)NCC(=O)N[C@@H](CC(C)C)C(=O)NCC(=O)N[C@@H](CCC(=O)O)C(=O)N[C@@H](CS)C(=O)O)C(C)C [GIGKHVGKALKGLKGLLKGLGEC]

MIC [8]: ≥ 40 µM | MIC [3]: 40 µM (≈ 59.5 µg/mL) | MIC [6]: 40 µM (≈ 59.5 µg/mL) | MIC [9]: 40 µM (≈ 59.5 µg/mL)
SMILES: CC[C@H](C)[C@H](NC(=O)[C@H](C)NC(=O)[C@@H](N)CCCCN)C(=O)N[C@H](C(=O)N[C@@H](CCC(N)=O)C(=O)N[C@@H](CCCN=C(N)N)C(=O)N[C@H](C(=O)N[C@@H](CCCCN)C(=O)N[C@@H](CC(=O)O)C(=O)N[C@@H](Cc1ccccc1)C(=O)N[C@@H](CC(C)C)C(=O)N[C@@H](CCCN=C(N)N)C(=O)O)[C@@H](C)CC)C(C)C [KAIVQRIKDFLR]

MIC [10]: 9.3 µM (≈ 12.5 µg/mL) | MIC [11]: 18.6 µM (≈ 25 µg/mL)
SMILES: CC[C@H](C)[C@H](NC(=O)CNC(=O)[C@H](C)NC(=O)[C@@H](NC(=O)[C@H](CC(C)C)NC(=O)CNC(=O)[C@@H]1CCCN1C(=O)[C@H](CC(C)C)NC(=O)[C@@H](N)Cc1ccccc1)[C@@H](C)CC)C(=O)N[C@@H](C)C(=O)N[C@@H](CCCCN)C(=O)N[C@@H](CCSC)C(=O)N[C@@H](CC(C)C)C(N)=O [FLPGLIAGIAKML]

MIC [12]: 9.85 µM (≈ 25 µg/mL) | MIC [13]: 39.4 µM (≈ 100 µg/mL)
SMILES: CC(C)C[C@H](NC(=O)[C@H](C)NC(=O)[C@H](CCCCN)NC(=O)[C@H](CCCCN)NC(=O)[C@H](CC(C)C)NC(=O)[C@H](C)NC(=O)[C@H](CCCCN)NC(=O)[C@H](CCCCN)NC(=O)[C@H](CC(C)C)NC(=O)[C@H](CCCCN)NC(=O)[C@H](CCCCN)NC(=O)[C@H](CC(C)C)NC(=O)[C@H](C)NC(=O)[C@H](CCCCN)NC(=O)[C@H](CCCCN)NC(=O)[C@H](CC(C)C)NC(=O)[C@H](C)NC(=O)[C@H](CCCCN)NC(=O)[C@H](CC(C)C)NC(=O)[C@H](C)NC(=O)[C@H](CC(C)C)NC(=O)[C@H](C)NC(=O)[C@@H](N)Cc1ccccc1)C(N)=O [FALALKALKKALKKLKKALKKAL]

SMILES: CC(C)C[C@H](NC(=O)[C@H](C)NC(=O)[C@H](CCCCN)NC(=O)[C@H](CCCCN)NC(=O)[C@H](C)NC(=O)[C@H](CC(C)C)NC(=O)[C@H](CCCCN)NC(=O)[C@H](C)NC(=O)[C@H](CC(C)C)NC(=O)[C@H](CC(C)C)NC(=O)[C@H](CCCCN)NC(=O)[C@H](C)NC(=O)[C@@H](N)Cc1ccccc1)C(N)=O [FAKLLAKLAKKAL]
MIC [12]: 3.53 µM (≈ 5 µg/mL) | MIC [13]: 35.3 µM (≈ 50 µg/mL)

MIC [14]: ≥ 39.8 µM | MIC [10]: 4.98 µM (≈ 15 µg/mL) | MIC [3]: 39.8 µM (≈ 120 µg/mL) | MIC [15]: 19.9 µM (≈ 60 µg/mL)
SMILES: CC[C@H](C)[C@H](NC(=O)[C@H](CCC(N)=O)NC(=O)[C@H](CCCCN)NC(=O)[C@H](Cc1c[nH]c2ccccc12)NC(=O)[C@H](CC(C)C)NC(=O)[C@H](CCC(N)=O)NC(=O)CNC(=O)[C@H](CC(C)C)NC(=O)[C@H](CCCCN)NC(=O)[C@H](C)NC(=O)[C@H](CCC(=O)O)NC(=O)[C@H](CCCCN)NC(=O)[C@@H](NC(=O)[C@H](CCSC)NC(=O)[C@@H](NC(=O)[C@@H](NC(=O)[C@@H](NC(=O)[C@@H](N)CO)[C@@H](C)CC)[C@@H](C)CC)[C@@H](C)O)[C@@H](C)O)C(=O)N[C@@H](C)C(=O)N[C@H]1CSSC[C@@H](C(=O)O)NC(=O)[C@H]([C@@H](C)O)NC(=O)[C@H](CC(N)=O)NC(=O)[C@H](Cc2ccc(O)cc2)NC(=O)[C@H](CC(C)C)NC(=O)[C@H](CCCN=C(N)N)NC1=O [SIITMTKEAKLGQLWKQIACRLYNTC]

SMILES: CC(C)C[C@H](NC(=O)[C@H](CCCCN)NC(=O)[C@H](CC(C)C)NC(=O)[C@H](CCCCN)NC(=O)[C@H](CC(C)C)NC(=O)[C@H](C)NC(=O)[C@H](CC(C)C)NC(=O)[C@H](C)NC(=O)[C@H](CC(C)C)NC(=O)[C@H](CC(C)C)NC(=O)[C@H](CCCCN)NC(=O)[C@H](C)NC(=O)[C@@H](N)Cc1ccccc1)C(N)=O [FAKLLALALKLKL]
MIC [12]: 6.94 µM (≈ 9.99 µg/mL) | MIC [13]: > 139 µM

MIC [14]: 29.8 µM (≈ 99.9 µg/mL) | MIC [10]: 14.9 µM (≈ 50 µg/mL) | MIC [3]: 14.9 µM (≈ 50 µg/mL) | MIC [15]: 3.72 µM (≈ 12.5 µg/mL)
SMILES: CC[C@H](C)[C@H](NC(=O)[C@H](CCCCN)NC(=O)[C@H](CC(N)=O)NC(=O)[C@H](CC(C)C)NC(=O)[C@@H](NC(=O)[C@@H](NC(=O)[C@@H](NC(=O)[C@H](C)NC(=O)[C@H](C)NC(=O)[C@H](CC(N)=O)NC(=O)[C@H](CCCCN)NC(=O)[C@H](CC(C)C)NC(=O)CNC(=O)[C@H](CCC(=O)O)NC(=O)[C@H](CCCCN)NC(=O)[C@@H](NC(=O)[C@H](CO)NC(=O)[C@H](CC(=O)O)NC(=O)[C@H](Cc1c[nH]c2ccccc12)NC(=O)[C@H](Cc1ccccc1)NC(=O)CN)C(C)C)C(C)C)[C@@H](C)O)[C@@H](C)CC)C(=O)N[C@@H](CCCCN)C(=O)N[C@H]1CSSC[C@@H](C(=O)N2CCC[C@H]2C(=O)N2CCC[C@H]2C(=O)N[C@@H](C)C(=O)O)NC(=O)[C@H](CCC(=O)O)NC(=O)[C@H](CO)NC(=O)[C@H]([C@@H](C)CC)NC(=O)[C@H](CCCCN)NC1=O [GFWDSVKEGLKNAAVTILNKIKCKISECPPA]

MIC [8]: ≥ 40 µM | MIC [3]: 40 µM (≈ 61.2 µg/mL) | MIC [6]: 40 µM (≈ 61.2 µg/mL) | MIC [9]: 40 µM (≈ 61.2 µg/mL)
SMILES: CC[C@H](C)[C@H](NC(=O)[C@H](CCCN=C(N)N)NC(=O)[C@@H](N)CCCCN)C(=O)N[C@H](C(=O)N[C@@H](CCC(N)=O)C(=O)N[C@@H](CCCN=C(N)N)C(=O)N[C@@H](C)C(=O)N[C@@H](CCCCN)C(=O)N[C@@H](CC(=O)O)C(=O)N[C@@H](Cc1ccccc1)C(=O)N[C@@H](CC(C)C)C(=O)N[C@@H](CCCN=C(N)N)C(=O)O)C(C)C [KRIVQRAKDFLR]

SMILES: CC(C)C[C@H](NC(=O)[C@H](CCCCN)NC(=O)[C@H](C)NC(=O)[C@H](CC(C)C)NC(=O)[C@H](CCCCN)NC(=O)[C@H](CC(C)C)NC(=O)[C@H](C)NC(=O)[C@H](CC(C)C)NC(=O)[C@H](CCCCN)NC(=O)[C@H](C)NC(=O)[C@H](CC(C)C)NC(=O)[C@H](CCCCN)NC(=O)[C@H](CCCCN)NC(=O)[C@H](C)NC(=O)[C@@H](N)Cc1ccccc1)C(N)=O [FAKKLAKLALKLAKL]
MIC [12]: 3.02 µM (≈ 5 µg/mL) | MIC [13]: 3.02 µM (≈ 5 µg/mL)

SMILES: CC(C)C[C@H](NC(=O)[C@H](CCCCN)NC(=O)[C@H](CCCCN)NC(=O)[C@H](CC(C)C)NC(=O)[C@H](C)NC(=O)[C@H](CCCCN)NC(=O)[C@H](CC(C)C)NC(=O)[C@H](C)NC(=O)[C@H](CCCCN)NC(=O)[C@H](CCCCN)NC(=O)[C@H](C)NC(=O)[C@@H](N)Cc1ccccc1)C(N)=O [FAKKALKALKKL]
MIC [12]: 147 µM (≈ 200 µg/mL) | MIC [13]: 73.6 µM (≈ 99.9 µg/mL)
